molecular target: T1, human NOX1 (hNOX1) (Homo sapiens, UniProt Q9Y5S8); test: NOX1 inhibition assay (L-012), HEK293 cells stably overexpressing human NOX1; format: cell-based; conditions: HEK293-hNOX1, PMA stimulated
T1 construct: pLV-CMV-hNOX1-puro (NM_007052.5); host or cells: HEK293 (CLS GmbH), lentiviral transduction
T1 sequence (Q9Y5S8 1-564): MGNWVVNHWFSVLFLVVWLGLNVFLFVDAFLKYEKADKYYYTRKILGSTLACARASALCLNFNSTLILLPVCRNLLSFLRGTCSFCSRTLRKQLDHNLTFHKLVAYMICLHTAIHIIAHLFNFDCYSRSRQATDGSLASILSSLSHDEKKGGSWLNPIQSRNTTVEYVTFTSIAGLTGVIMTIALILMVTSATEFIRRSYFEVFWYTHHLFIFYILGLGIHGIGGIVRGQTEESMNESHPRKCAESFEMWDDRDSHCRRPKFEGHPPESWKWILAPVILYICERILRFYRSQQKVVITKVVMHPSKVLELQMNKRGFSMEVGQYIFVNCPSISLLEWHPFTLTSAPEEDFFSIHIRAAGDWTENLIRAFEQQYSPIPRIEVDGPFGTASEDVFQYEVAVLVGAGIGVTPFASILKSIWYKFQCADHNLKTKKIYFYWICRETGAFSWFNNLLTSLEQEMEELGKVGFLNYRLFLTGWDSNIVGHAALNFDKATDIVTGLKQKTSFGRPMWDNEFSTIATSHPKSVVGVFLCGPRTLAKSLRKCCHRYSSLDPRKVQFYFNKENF
T1 sequence (P13498 2-195 partner limits assumed): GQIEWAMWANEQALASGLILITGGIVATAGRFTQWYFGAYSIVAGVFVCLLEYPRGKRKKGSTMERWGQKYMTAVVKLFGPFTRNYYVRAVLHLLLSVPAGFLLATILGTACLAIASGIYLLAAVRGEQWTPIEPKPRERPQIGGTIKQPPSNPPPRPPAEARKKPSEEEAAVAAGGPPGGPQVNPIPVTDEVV
Text: Plasmids are Purchased from Vectorbuilder. • for HEK-hNOX1 all necessary subunits are cloned accordingly: • pLV-CMV-hNOX1-puro (NM_007052.5) • pLV-CMV-hNOXO1-blas (NM_172168.3) • pLV-CMV-hp22phox-hygro (NM_000101.4) • pLV-CMV-hNOXA1-neo (NM_006647.2) • for HEK-hNOX3 • pLV-CMV-hNOX3-puro (NM_015718.3)
3rd generation lentiviral particles are produced in HEK293 suspension cells by transient transfection of three helper and expression plasmids. Crucial lentivirus supernatants are harvested, clarified by filtration and concentrated by precipitation. Lentivirus titers are determined in transducing units in (TU/mL) by transduction of HT1080 cells and colony forming assay. Parental HEK293 cells, purchased from CLS GmbH, are transduced with replication-incompetent 3rd generation lentiviral particles (MOI 2) and expanded for at least 2 weeks before cryopreservation of tested lots. During cultivation, medium is changed three times per week and cells are sub-cultured at least once per week. Selection antibiotics are added according to the plasmids (1 μg/ml puromycin, 1.5 μg/ml blasticidin, 200 μg/ml G418 and 100 μg/ml hygromycin).
Evaluation of the NOX4 inhibitors on NOX1 activity is assessed in HEK293 cells stably overexpressing human NOX1 (hNOX1).
Lastly, 8-amino-5-chloro-2,3-dihydro-7-phenyl-pyrido[3,4-d]pyridazine-1,4-dione sodium salt (L-012, CAS 143556-24-5) is added at 400 μM to all wells, and cells are incubated in an incubator for an additional 3 h. Afterwards luminescence is measured with a SpectraMax Paradigm Microplate Reader.

Row | IC50 [µM] | Structure (SMILES)
1 | > 100 | O=c1c2scnc2nc(SCc2ccc(Cl)cc2F)n1-c1cnc(O)nc1 [Example 53, 5-((4-Chloro-2-fluorobenzyl)thio)-6-(2-hydroxypyrimidin-5-yl)thiazolo[4,5-d]pyrimidin-7(6H)-one]
2 | 36.7 | O=c1c2scnc2nc(SCc2c(F)cc(F)cc2F)n1-c1cnc(O)c(Cl)c1 [Example 48, 6-(5-Chloro-6-hydroxypyridin-3-yl)-5-((2,4,6-trifluorobenzyl)thio)thiazolo[4,5-d]pyri-midin-7(6H)-one]
3 | > 100 | O=c1c2scnc2nc(SCc2c(F)cc(F)cc2F)n1-c1cnc(O)cc1F [Example 49, 6-(4-Fluoro-6-hydroxypyridin-3-yl)-5-((2,4,6-trifluorobenzyl)thio)thiazolo[4,5-d]pyrimidin-7(6H)-one]
4 | > 100 | O=c1c2scnc2nc(SCc2ccc(C(F)(F)F)cc2)n1-c1cnc(O)nc1 [Example 60]
5 | > 100 | Cc1cc(Cl)ccc1CSc1nc2ncsc2c(=O)n1-c1ccc(O)nn1 [Example 62]
6 | 48.4 | O=c1c2scnc2nc(SCc2ccc(C(F)(F)F)cc2Cl)n1-c1cnc(O)c(F)c1 [Example 46]
7 | > 100 | O=c1c2scnc2nc(SCc2ccc(Cl)cc2)n1-c1ccc(O)nn1 [Example 64]
8 | > 100 | O=c1c2scnc2nc(SCc2c(F)cc(F)cc2F)n1-c1cnc(O)cn1 [Example 69, 6-(5-Hydroxypyrazin-2-yl)-5-((2,4,6-trifluorobenzyl)thio)thiazolo[4,5-d]pyrimidin-7(6H)-one]
9 | > 100 | O=c1c2scnc2nc(SCc2c(F)cc(F)cc2F)n1-c1ccc(O)nn1 [Example 67]
10 | 21.2 | O=c1c2scnc2nc(SCc2c(F)cc(F)cc2F)n1-c1cnc(O)c(F)c1F [Example 52, 6-(4,5-Difluoro-6-hydroxypyridin-3-yl)-5-((2,4,6-trifluorobenzyl)thio)thiazolo[4,5-d]-pyrimidin-7(6H)-one]
11 | 43.4 | Cc1cc(F)cc(C)c1CSc1nc2ncsc2c(=O)n1-c1ccc(O)nn1 [Example 63]
12 | 2.7 | O=c1c2scnc2nc(SCc2ccc(Cl)cc2)n1-c1cnc(O)nc1 [Example 56]
13 | > 100 | O=c1c2scnc2nc(SCc2ccc(Cl)cc2F)n1-c1ccc(O)nn1 [Example 61, 5-((4-Chloro-2-fluorobenzyl)thio)-6-(6-hydroxypyridazin-3-yl)thiazolo[4,5-d]pyrimidin-7(6H)-one]
14 | 16.5 | Cc1cc(F)cc(C)c1CSc1nc2ncsc2c(=O)n1-c1cnc(O)nc1 [Example 55]
15 | 4.9 | N#Cc1cc(-n2c(SCc3c(F)cc(F)cc3F)nc3ncsc3c2=O)cnc1O [Example 47, 2-Hydroxy-5-(7-oxo-5-((2,4,6-trifluorobenzyl)thio)thiazolo[4,5-d]pyrimidin-6(7H)-yl)-nicotinonitrile]
16 | > 100 | O=c1c2scnc2nc(SCc2ccc(C(F)(F)F)cc2)n1-c1ccc(O)nn1 [Example 66]

Continued, compound first:

Row | Structure (SMILES) | IC50 [µM]
17 | Cc1cc(F)ccc1CSc1nc2ncsc2c(=O)n1-c1cnc(O)c(F)c1 [Example 36] | > 100
18 | O=c1c2scnc2nc(SCc2ccc(Cl)cc2)n1-c1ccc(O)nc1 [Example 25] | > 100
19 | O=c1c2scnc2nc(SCc2ccc(Br)cc2F)n1-c1cnc(O)c(F)c1 [Example 34] | 14.7
20 | Cc1cc(F)cc(C)c1CSc1nc2ncsc2c(=O)n1-c1ccc(O)nc1 [Example 24] | 20.6
21 | O=c1c2scnc2nc(SCc2c(F)cc(F)cc2F)n1-c1cc(F)c(O)cc1F [Example 10, 6-(2,5-Difluoro-4-hydroxyphenyl)-5-((2,4,6-trifluorobenzyl)thio)thiazolo[4,5-d]pyrimidin-7(6H)-one] | 0.5
22 | O=c1c2scnc2nc(SCc2c(F)cc(F)cc2F)n1-c1cc(F)c(O)cn1 [Example 20] | 7
23 | O=c1c2scnc2nc(SCc2c(F)cc(F)cc2F)n1-c1ccc(O)c(F)c1F [Example 12] | 2.9
24 | O=c1c2scnc2nc(SCc2c(F)cc(F)cc2F)n1-c1ncc(O)cn1 [Example 21, 6-(5-Hydroxypyrimidin-2-yl)-5-((2,4,6-trifluorobenzyl)thio)thiazolo[4,5-d]pyrimidin-7(6H)-one] | > 100
25 | O=c1c2scnc2nc(SCc2ccc(C(F)(F)F)cc2)n1-c1cc(F)c(O)c(F)c1 [Example 7] | > 100
26 | O=c1c2scnc2nc(SCc2c(F)cc(F)cc2F)n1-c1c(F)cc(O)cc1F [Example 13] | 3.2
27 | O=c1c2scnc2nc(SCc2c(F)cc(F)cc2F)n1-c1ccc(O)cc1F [Example 14] | 2.3
28 | O=c1c2scnc2nc(SCc2ccc(Cl)cc2F)n1-c1cnc(O)c(F)c1 [Example 35] | > 100
29 | O=c1c2scnc2nc(SCc2ccc(C(F)(F)F)cc2F)n1-c1ccc(O)nc1 [Example 26] | 33
30 | O=c1c2scnc2nc(SCc2ccc(F)cc2)n1-c1ccc(O)nc1 [Example 30] | 37.8
31 | O=c1c2scnc2nc(SCc2ccc(C(F)(F)F)cc2)n1-c1ccc(O)nc1 [Example 27] | 76
32 | O=c1c2scnc2nc(SCc2ccc(F)cc2Br)n1-c1cnc(O)c(F)c1 [Example 44] | 43.2
33 | Cc1cc(Cl)ccc1CSc1nc2ncsc2c(=O)n1-c1cnc(O)c(F)c1 [Example 37] | 18.8

Row | Structure (SMILES) | IC50 [µM]
34 | O=c1c2scnc2nc(SCc2ccc(C(F)(F)F)cc2)n1-c1cnc(O)c(F)c1 [Example 32, 6-(5-Fluoro-6-hydroxypyridin-3-yl)-5-((4-(trifluoromethyl)benzyl)thio)thiazolo[4,5-d]pyrimidin-7(6H)-one] | > 100
35 | O=c1c2scnc2nc(SCc2ccc(Cl)cc2)n1-c1cnc(O)c(F)c1 [Example 33] | 35.5
36 | O=c1c2scnc2nc(SCc2c(F)cc(F)cc2F)n1-c1ccc(O)c(Cl)c1 [Example 16] | 15
37 | O=c1c2scnc2nc(SCc2c(F)ccc(F)c2F)n1-c1cnc(O)c(F)c1 [Example 45] | 30.9
38 | O=c1c2scnc2nc(SCc2c(F)cc(F)cc2Cl)n1-c1cnc(O)c(F)c1 [Example 41] | 9.8
39 | O=c1c2scnc2nc(SCc2c(F)cc(F)cc2F)n1-c1cnc(O)c(F)c1 [Example 31, 6-(5-Fluoro-6-hydroxypyridin-3-yl)-5-((2,4,6-trifluorobenzyl)thio)thiazolo[4,5-d]-pyrimidin-7(6H)-one] | 22.9
40 | O=c1c2scnc2nc(SCc2ccc(Cl)cc2Cl)n1-c1cnc(O)c(F)c1 [Example 39] | 24.5
41 | O=c1c2scnc2nc(SCc2c(F)cc(F)cc2F)n1-c1ccc(O)cc1 [Example 15] | 4.1
42 | Cc1c(F)cccc1CSc1nc2ncsc2c(=O)n1-c1cnc(O)c(F)c1 [Example 40] | 32.9
43 | Cc1cc(F)cc(C)c1CSc1nc2ncsc2c(=O)n1-c1cnc(O)c(F)c1 [Example 43] | > 100
44 | O=c1c2scnc2nc(SCc2ccc(C(F)(F)F)cc2F)n1-c1cnc(O)c(F)c1 [Example 42] | 5.6
45 | O=c1c2scnc2nc(SCc2ccc(Cl)cc2)n1-c1cc(F)c(O)c(F)c1 [Example 5] | 0.3
46 | O=c1c2scnc2nc(SCc2c(F)cc(F)cc2F)n1-c1ccc(O)c(F)c1 [Example 11] | 0.9
47 | O=c1c2scnc2nc(SCc2c(F)cc(F)cc2F)n1-c1cc(F)c(O)c(F)c1 [Example 8] | 1.1
48 | O=c1c2scnc2nc(SCc2c(F)cc(F)cc2F)n1-c1ccc(O)cc1Cl [Example 17] | 14.4
49 | O=c1c2scnc2nc(SCc2c(F)cc(F)cc2F)n1-c1ccc(O)nc1 [Example 28] | 27.1
